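Tested at 5 concentrations; 48 h exposure; 96-well plates; endpoints linearly interpolated, else capped at highest concentration. TGI: total growth inhibition.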
Columns and labels:
Experiment in all cases: inhibition of tumour cell growth, NCI panel, 48 h
[1] = system: MDA-N
[2] = system: HCT-15 colon
[3] = system: A549 NSCLC
[4] = system: OVCAR-3 ovarian
[5] = system: CCRF-CEM leukemia
[6] = system: ACHN renal
[7] = system: BT-549 breast
[8] = system: 786-0 renal
[9] = system: COLO 205 colon
[10] = system: RPMI-8226 leukemia
[11] = system: SNB-75 CNS

Measured: TGI

Cc1ccc(S(=O)(=O)Oc2nc3ccccc3nc2OS(=O)(=O)c2ccc(C)cc2)cc1
> 100 µM: all assays above
